According to article PMC10959927, “Platinum iodido drugs show potential anti-tumor activity, affecting cancer cell metabolism and inducing ROS and senescence in gastrointestinal cancer cells” (Communications Biology, 2024):
Where “and” joins values, the source holds several entries; their conditions need not be identical. Equal entries are not always repeated.

How the values were obtained:
Format in all cases: cell-based, human
AGS cells [1] = assay: Ratio GSH/GSSG, colorimetric kit
Outline: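 AGS and PANC1 cells were exposed to compounds for 3 and 24 h, with H2O2 as positive control. GSSG was measured separately after 2-vinylpyridine treatment to give the GSH/GSSG ratio.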

AGS cells [2] = assay: RT-qPCR gene expression (CDKN1A, IL6, MMP1, MAP2K3, SOD1, SOD2, CAT, MKI67, TNFRSF10D)
Protocol: (§1) Total cellular RNA was extracted using Tri-Reagent (Life Technologies), following the manufacturer’s instructions. One μg of total RNA was primed with random primers and cDNA synthesized with an M-MLV reverse transcriptase following the manufacturer’s instructions (Promega). Target genes were amplified using a SYBR Green polymerase chain reaction assay, working with the specific primer sets listed in Table 4.
(§2) Thermal cycling of the qPCR reaction was initiated with a denaturation step at 95 °C for 10 min. The process consisted of 40 cycles (denaturation at 95 °C for 15 sec, annealing at 60 °C for 30 sec, and elongation at 75 °C for 30 sec). PCR amplifications were carried out in a StepOne Real‐time PCR System (Applied Biosystems, 4376357). Relative mRNA levels were calculated by the delta-Ct method (2-ΔΔCt), where each 1-Ct difference equals a two-fold change in transcript abundance, using GAPDH as an endogenous gene reference. ΔΔCT represents the difference between the mean ΔCT value of the cells tested and the mean ΔCT value of the calibrator, both calculated for the same PCR run.

PANC1 cells [3] = assay: as above
Protocol: as §1, §2

MKN45 cells [4] = assay: as above
Protocol: as §1, §2

MKN45 cells [5] = assay: Immunofluorescence of γ-H2AX foci; conditions: Fig. 3B; for foci/cell, number of cells in class: cell count
Protocol: (§3) Cells (7 × 10^4) were seeded on 20 mm coverslips. […] Coverslips were incubated for 1 h with the primary antibody (Cell Signaling: H2AX Ser139 (#2595) and 53BP1 (#4937)) at room temperature, followed by a 1 h incubation with the appropriate secondary antibody. DNA was stained with DAPI. Fluorescence microscopy was performed using a NIKON Eclipse 90i. The image analysis was performed using the software program Nikon NIS-Elements and Image J.

AGS cells [6] = assay: Clonogenic (CFU) assay with or without NAC; conditions: IC50 concentration, 10 days
Protocol: (§4) For the clonogenic assay we used two different approaches. […] Then, cells were cultured in a 6-well plate at a very low concentration (2 × 10^3 cells per well) and incubated for 10 days. […] To evaluate the role of ROS in cell proliferation, we supplemented the growth medium with 0.5 mM NAC. After 10 days, the cells were fixed with 1% glutaraldehyde and stained with 0.1% crystal violet. The number of colonies was quantified directly and reflected as CFUs: Colony Forming Units.

MKN45 cells [7] = assay: Clonogenic (CFU) assay with or without NAC; conditions: 10 days
Protocol: as §4

AGS cells [8] = assay: Immunofluorescence of γ-H2AX and 53BP1 foci; conditions: for foci/cell, share of cells in class (Suma 100) / foci/cell, number of cells in class: Fig. 3B; for foci/cell, number of cells in class: cell count
Protocol: as §3

PANC1 cells [9] = assay: Immunofluorescence of γ-H2AX and 53BP1 foci; conditions: for foci/cell, share of cells in class (Suma 100) / foci/cell, number of cells in class: PANC1, Fig. 3B; for foci/cell, number of cells in class: cell count
Protocol: as §3

[10] = PANC1, Fig. 3C, replicate values
[11] = MKN45, Fig. 3C, replicate values

## [NH2][Pt]([NH2])([Cl])[Cl] [CDDP, cisplatin, reference compound]
AGS cells [1]; AGS, 3, relative to Control = 1
  GSH/GSSG: 0.992 and 0.9971 and 1.026
AGS cells [1]; AGS, 24, relative to Control = 1
  GSH/GSSG: 0.8767 and 0.8827 and 0.9433
AGS cells [2]; Fig. 3C, replicate values
  CDKN1A, Fold change vs GAPDH: 19.195 fold change and 16.0881 fold change and 22.9019 fold change
  IL-6, Fold change vs GAPDH: 0.7415 fold change and 0.5536 fold change and 0.449 fold change
  MMP-1, Fold change vs GAPDH: 4.748 fold change and 3.523 fold change and 6.399 fold change
AGS cells [2]; Fig. 4B, replicate values
  Fold change MAP2K3 vs GAPDH: 3.776 fold change and 3.2606 fold change and 4.374 fold change
AGS cells [2]; Fig. S4C
  TNFRSF10D Fold change vs GAPDH: 10.7682 fold change and 9.829 fold change and 11.7968 fold change
AGS cells [2]; mRNA vs Control = 1
  CAT (Fold change vs GAPDH): 0.4339 Fold change and 0.4032 Fold change and 0.467 Fold change
  SOD1 (Fold change vs GAPDH): 1.248 Fold change and 1.114 Fold change and 1.397 Fold change
  SOD2 (Fold change vs GAPDH): 1.83 Fold change and 1.608 Fold change and 2.083 Fold change
PANC1 cells [3]; PANC1, Fig. S4C
  MKI67 Fold change vs GAPDH: 0.584 fold change and 0.4541 fold change and 0.7511 fold change
  TNFRSF10D Fold change vs GAPDH: 2.899 fold change and 2.5476 fold change and 3.299 fold change
PANC1 cells [3]; PANC1, mRNA vs Control = 1
  CAT (Fold change vs GAPDH): 0.9643 Fold change and 0.7898 Fold change and 1.177 Fold change
  SOD1 (Fold change vs GAPDH): 1.201 Fold change and 1.761 Fold change and 1.789 Fold change
  SOD2 (Fold change vs GAPDH): 0.4267 Fold change and 0.395 Fold change and 0.4609 Fold change
PANC1 cells [3]; [10]
  CDKN1A, Fold change vs GAPDH: 2.689 fold change and 2.397 fold change and 3.018 fold change
  IL-6, Fold change vs GAPDH: 6.723 fold change and 5.78 fold change and 7.821 fold change
  MMP-1, Fold change vs GAPDH: 3.584 fold change and 2.804 fold change and 4.175 fold change
PANC1 cells [3]; PANC1, Fig. 4B, replicate values
  Fold change MAP2K3 vs GAPDH: 2.138 fold change and 1.804 fold change and 2.534 fold change
MKN45 cells [4]; MKN45, Fig. S4C
  MKI67 Fold change vs GAPDH: 0.592 fold change and 0.4427 fold change and 0.7916 fold change
  TNFRSF10D Fold change vs GAPDH: 0.5932 fold change and 0.4461 fold change and 0.7888 fold change
MKN45 cells [4]; MKN45, mRNA vs Control = 1
  CAT (Fold change vs GAPDH): 1.496 Fold change and 1.261 Fold change and 1.775 Fold change
  SOD1 (Fold change vs GAPDH): 1.684 Fold change and 1.471 Fold change and 1.928 Fold change
  SOD2 (Fold change vs GAPDH): 5.8142 Fold change and 4.057 Fold change and 3.7805 Fold change
MKN45 cells [4]; [11]
  CDKN1A, Fold change vs GAPDH: 4.774 fold change and 4.07 fold change and 5.599 fold change
  IL-6, Fold change vs GAPDH: 1.95 fold change and 3.642 fold change and 4.704 fold change
  MMP-1, Fold change vs GAPDH: 3.347 fold change and 2.194 fold change and 5.104 fold change
MKN45 cells [4]; MKN45, Fig. 4B, replicate values
  Fold change MAP2K3 vs GAPDH: 2.858 fold change and 2.103 fold change and 3.884 fold change
MKN45 cells [5]; class 16-30 foci/cell
  foci/cell, share of cells in class (Suma 100): 6.667
  foci/cell, number of cells in class: 4
MKN45 cells [5]; class 31-45 foci/cell
  foci/cell, share of cells in class (Suma 100): 13.3333
  foci/cell, number of cells in class: 8
MKN45 cells [5]; class 46-60 foci/cell
  foci/cell, share of cells in class (Suma 100): 16.6667
  foci/cell, number of cells in class: 10
MKN45 cells [5]; class <15 foci/cell
  foci/cell, share of cells in class (Suma 100): 0
  foci/cell, number of cells in class: 0
MKN45 cells [5]; class >61 foci/cell
  foci/cell, share of cells in class (Suma 100): 63.3333
  foci/cell, number of cells in class: 38
AGS cells [6]; AGS + NAC 0.5 mM
  colonies (CFUs), mean ± SD: 0.7 ± 0.6
AGS cells [6]; AGS, no NAC
  colonies (CFUs), mean ± SD: 0
MKN45 cells [7]; MKN45 + NAC 0.5 mM, IC50 concentration
  colonies (CFUs), mean ± SD: 1 ± 1.4
MKN45 cells [7]; MKN45, IC50 concentration, no NAC
  colonies (CFUs), mean ± SD: 1 ± 1
AGS cells [8]; class 16-30 foci/cell
  foci/cell, share of cells in class (Suma 100): 23.0769
  foci/cell, number of cells in class: 18
AGS cells [8]; class 31-45 foci/cell
  foci/cell, share of cells in class (Suma 100): 26.9231
  foci/cell, number of cells in class: 21
AGS cells [8]; class 46-60 foci/cell
  foci/cell, share of cells in class (Suma 100): 21.7949
  foci/cell, number of cells in class: 17
AGS cells [8]; class <15 foci/cell
  foci/cell, share of cells in class (Suma 100): 21.7949
  foci/cell, number of cells in class: 17
AGS cells [8]; class >61 foci/cell
  foci/cell, share of cells in class (Suma 100): 6.41
  foci/cell, number of cells in class: 5
AGS cells [8]; Fig. S4B, cell counts
  foci/cell: number of cells with 16-30 foci: 35
  foci/cell: number of cells with 31-45 foci: 15
  foci/cell: number of cells with 46-60 foci: 5
  foci/cell: number of cells with <15 foci: 45
  foci/cell: number of cells with >61 foci: 4
AGS cells [8]; Fig. S4B, share of N
  foci/cell: share of cells with 16-30 foci (Suma 100): 33.6538
  foci/cell: share of cells with 31-45 foci (Suma 100): 14.4231
  foci/cell: share of cells with 46-60 foci (Suma 100): 4.808
  foci/cell: share of cells with <15 foci (Suma 100): 43.2692
  foci/cell: share of cells with >61 foci (Suma 100): 3.846
PANC1 cells [9]; PANC1, Fig. S4B, cell counts
  foci/cell: number of cells with 16-30 foci: 32
  foci/cell: number of cells with 31-45 foci: 36
  foci/cell: number of cells with 46-60 foci: 25
  foci/cell: number of cells with <15 foci: 21
  foci/cell: number of cells with >61 foci: 22
PANC1 cells [9]; PANC1, Fig. S4B, share of N
  foci/cell: share of cells with 16-30 foci (Suma 100): 23.5294
  foci/cell: share of cells with 31-45 foci (Suma 100): 26.4706
  foci/cell: share of cells with 46-60 foci (Suma 100): 18.3824
  foci/cell: share of cells with <15 foci (Suma 100): 15.4412
  foci/cell: share of cells with >61 foci (Suma 100): 16.1765
PANC1 cells [9]; class 16-30 foci/cell
  foci/cell, share of cells in class (Suma 100): 10
  foci/cell, number of cells in class: 11
PANC1 cells [9]; class 31-45 foci/cell
  foci/cell, share of cells in class (Suma 100): 23.6364
  foci/cell, number of cells in class: 26
PANC1 cells [9]; class 46-60 foci/cell
  foci/cell, share of cells in class (Suma 100): 20
  foci/cell, number of cells in class: 22
PANC1 cells [9]; class <15 foci/cell
  foci/cell, share of cells in class (Suma 100): 6.364
  foci/cell, number of cells in class: 7
PANC1 cells [9]; class >61 foci/cell
  foci/cell, share of cells in class (Suma 100): 40
  foci/cell, number of cells in class: 44
